Measured values reported in publication PMC10447463, “Data-mining unveils structure–property–activity correlation of viral infectivity enhancing self-assembling peptides” (Nature Communications, 2023).
Read-outs that look alike come from different tables or passages of the source.

Columns and labels:
[1] = β-sheet content by ATR-FT-IR; format: physicochemical; details: for b -sheet / %: Fig. S7 panel A, β-sheet content by ATR-FT-IR
How it was run: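 Using ATR FT-IR (diamond, 2 cm^-1, 64 scans), lyophilized 1 mg/mL PNF samples gave β-sheet content by a published calculation. Fluorescamine signals of 3 kDa filtrates relative to unfiltered samples, normalised to DMSO as 1, yielded CR in percent.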

[2] = Zeta-potential measurement; format: physicochemical
How it was run: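 Samples: 1 mg/mL in PBS pH 7.4 (from DMSO), 1 d at RT, then diluted in 1 mM KCl immediately before measurement. Triplicates, two independent runs averaged.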

[3] = system: HIV-1 infection of TZM-bl cells; experiment: HIV-1 infectivity enhancement assay, β-galactosidase luminescence; format: cell-based; details: for Rel-EFC: infection relative to EF-C (QCKIKQIINMWQ = 1); for Log10 Infection Rel EFC: log10 of infection relative to EF-C; for Log Infectivity: Log10 infection relative to EF-C, TZM-bl cells, asymmetric std dev errors; for Log10 Infection Rel EF-C: HIV-1 infection of TZM-bl cells; for Log10 Inf. rel. to EF-C: log10 of HIV-1 infection of TZM-bl cells relative to EF-C (EF-C = 0); for Abs. Infection at 0.26 µM / Infect 1 0.26 µM / Infect 2 0.26 µM / Infect 3 0.26 µM: peptide 0.26 µM; for Abs. Infection at 0.26 µM / Abs. Infection at 1.3 µM: mean of n = 3, Figure 4A; for Infect 1 0.26 µM / Infect 1 .3 µM: replicate 1, absolute infection signal; for Infect 1 0.26 µM / Infect 2 0.26 µM / Infect 3 0.26 µM / Infect 1 .3 µM / Infect 2 1.3µM / Infect 3 1.3 µM: Figure 4A; for Infect 2 0.26 µM / Infect 2 1.3µM: replicate 2, absolute infection signal; for Infect 3 0.26 µM / Infect 3 1.3 µM: replicate 3, absolute infection signal; for Abs. Infection at 1.3 µM / Infect 1 .3 µM / Infect 2 1.3µM / Infect 3 1.3 µM: peptide 1.3 µM; for Abs. Inf.: absolute infection signal, HIV-1 on TZM-bl cells, β-galactosidase luminescence; for Log10 of Rel to EFC (Feb2021): Log10 of infection relative to EF-C, all peptides of FigS16
[4] = Turbidity, derived count rate of scattered light; format: physicochemical; details: for Count Rate / kcps: derived count rate of scattered light at 633 nm, 173°, from zeta-potential measurement, 0.1 mg/mL in 1 mM KCl after 1 d at 1 mg/mL in PBS, turbidity / microscopic aggregation, mean of triplicate
How it was run: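 One-day room-temperature aggregation at 1 mg/mL in PBS (pH 7.4) preceded measurement; samples then went into 1 mM KCl. Triplicates per sample, two independent experiments averaged.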

[5] = zeta-potential of peptide, source data of Figure 2C
[6] = zeta-potential of the peptide assemblies, mean, Figure 3A source data
[7] = Fig. S7 panel A (plotted against β-sheet content)
[8] = Fig. S7 panel B (plotted against CR), rounded to two decimals
[9] = Log10 of infection rate relative to EF-C, Figure 3A source data
[10] = infection rate relative to EF-C, log10, data of Figure 2D
[11] = infection rate relative to EF-C, log10, source data of Figure 2C
[12] = Log10 of derived count rate of scattered light (turbidity)
[13] = turbidity, Log10 of derived count rate of scattered light, Figure 3A source data
[14] = turbidity, log10 of derived count rate of scattered light
[15] = logarithm of count rate in kcps

| Substance | b -sheet / % [1] [%] | Zeta-Potential / mV [2, 5] [mV] | Zeta-Potential / mV [2, 6] [mV] | Rel-EFC ([3]; 1.3 µM peptide) | Log10 Infection Rel EFC ([3]; 1.3 µM peptide) | Log Infectivity [3, 7] | Log Infectivity [3, 8] | Log10 Infection Rel EF-C [3, 9] | Log10 Infection Rel EF-C [3, 10] | Log10 Infection Rel EF-C [3, 11] | Log10 Inf. rel. to EF-C [3] | Log10 Count Rate [4, 12] | Count Rate / kcps [4] [kcps] | Log10 Count Rate [4, 13] | Log10 Count Rate [4, 14] | Zeta-Pot. [2] | Abs. Inf. [3] | Log10 of Rel to EFC (Feb2021) [3] | Log10 Count Rate [4, 15] | further results |
| --- | --- | --- | --- | --- | --- | --- | --- | --- | --- | --- | --- | --- | --- | --- | --- | --- | --- | --- | --- | --- |
| KAKAQA | 40.34 | -10.04 | -14.08 | 0,02 | -1,74 | -1.743 | -1.74 | -1.74 | -1.743 | -1.743 | -1.743 | 1.321 | 21 | 1.321 | 1.321 | – | – | – | – | Zeta-Pot. ([2]; zeta potential of peptide assemblies): -14.08; Abs. Infection at 0.26 µM [3]: 100; Infect 1 0.26 µM [3]: -23.33; Infect 2 0.26 µM [3]: 166.67; Infect 3 0.26 µM [3]: 156.67; Abs. Infection at 1.3 µM [3]: 146.7; Infect 1 .3 µM [3]: 126.67; Infect 2 1.3µM [3]: 46.67; Infect 3 1.3 µM [3]: 266.67 |
| HGEHGEHGE | 6.271 | -14.63 | -24.2 | 0,02 | -1,72 | -1.72 | -1.72 | -1.72 | -1.72 | -1.72 | -1.72 | 2.532 | 340 | 2.532 | 2.532 | -24.2 | 360 | – | – | – |
| KVKVKVQV | 43.06 | -0.6533 | -3.41 | 0,02 | -1,76 | -1.763 | – | -1.76 | -1.763 | -1.763 | -1.763 | 1.975 | 94 | 1.975 | 1.975 | -3.41 | 466.7 | – | – | – |
| CETMYDKILKNLSRSR | 62.1014 | -1.487 | 0.41 | 0,02 | -1,72 | -1.716 | -1.72 | -1.72 | -1.716 | -1.716 | -1.716 | 3.041 | 1099 | 3.041 | 3.041 | 0.41 | 363.3 | – | – | – |
| CKFKFQFNMWQ | 47.05 | 15.58 | 17.03 | 1,16 | 0,06 | 0.06446 | 0.06 | 0.06 | 0.06446 | 0.06446 | 0.06446 | 2.154 | 143 | 2.154 | 2.154 | 17.03 | 26320 | 0.06 | – | – |
| KAKAQANMWQ | 42.81 | -14.675 | -19.63 | 0,01 | -2,15 | -2.146 | -2.15 | -2.15 | -2.146 | -2.146 | -2.146 | 1.749 | 56 | 1.749 | 1.749 | -19.63 | 193.3 | – | 1.7 | ß-sheet / % ([1]; ATR-FT-IR of lyophilised 1 mg/mL PNF solution, peak integral ratio 1625-1635 cm-1, measured once): 43%; Zeta pot. / mV ([2]; 1 mg/mL in PBS pH 7.4 from 10 mg/mL DMSO stock, 1 d RT, 60 µL diluted in 600 µL 1 mM KCl, Zetasizer Nano ZS, Smoluchowski, mean of triplicate): -19.6 mV; Inf. rel. EF-C ([3]; HIV-1 infection relative to EF-C, Fig 23 plot, panels A and B, mean of 3 values): 0.008469; Inf. rel. EF-C ([3]; HIV-1 infection relative to EF-C, Fig 23 plot, single data point, replicate 1): 0.01122; Inf. rel. EF-C ([3]; HIV-1 infection relative to EF-C, Fig 23 plot, single data point, replicate 2): 0.003015; Inf. rel. EF-C ([3]; HIV-1 infection relative to EF-C, Fig 23 plot, single data point, replicate 3): 0.01117; Abs. Inf. / RLU s-1 ([3]; absolute infection rate, peptide 1.3 µM on cells, virus preincubated 10 min with fibrils, read 3 days post infection, mean of triplicate): 193 RLU s-1; Inf. rel. EF-C ([3]; n-fold infection vs virus only, relative to that of EF-C, 1.3 µM peptide): 0.01 |
| CHLHLQL | 49.52 | -10.37 | -12.27 | 0,1 | -1,01 | -1.008 | -1.01 | -1.01 | -1.008 | -1.008 | -1.008 | 3.062 | 1155 | 3.062 | 3.062 | -12.27 | 2934 | – | 3.062 | Abs. Infection at 0.26 µM [3]: 572.2; Infect 1 0.26 µM [3]: 545.6; Infect 2 0.26 µM [3]: 488.9; Infect 3 0.26 µM [3]: 682.2; Abs. Infection at 1.3 µM [3]: 2934; Infect 1 .3 µM [3]: 3586; Infect 2 1.3µM [3]: 2346; Infect 3 1.3 µM [3]: 2872 |
| KFKFQFNMWQ | 43.15 | 24.38 | 25.4 | 0,76 | -0,12 | -0.1164 | -0.12 | -0.12 | -0.1164 | -0.1164 | -0.1164 | 2.866 | 735 | 2.866 | 2.866 | 25.4 | 20676.66667 | -0.12 | 2.866 | – |
| HIHIQIC | 48.25 | -5.093 | -3.69 | 0,27 | -0,57 | -0.5672 | -0.57 | -0.57 | -0.5672 | -0.5672 | -0.5672 | 2.416 | 261 | 2.416 | 2.416 | -3.687 | 4621 | -0.57 | 2.416 | – |
